Values joined by “and” are separate entries in the source; they are usually repeats but may differ in a detail not shown here. Equal entries are not always repeated.
Tested on: 186277-243-T-J2-PDC complex spheroid viability
Assay: Anticancer human tumor 186277-243-T-J2-PDC patient-derived colon adenocarcinoma cell line growth inhibition [GQUAD]
Conditions: for viability, T/C: stronger effect = lower value
Excerpt: DNA G-quadruplex Stabilizer Agents in Combinations in Complex Spheroids
A high-throughput screen of multi-cell type tumor spheroids was designed to identify active combinations of DNA G-quadruplex stabilizer agents and targeted small molecules. Complex spheroids include a stromal component modeled by human endothelial cells (HUVEC) and fibroblasts modeled by human mesenchymal stem cells (MSCs). The concentration ranges selected for each drug and investigational agent were based upon clinically achievable concentrations if the clinical Cmax of the agent was known.
Compounds. The drugs and investigational agents: pidnarulex (CX-5461; NSC782164), APTO-253 (NSC789042), BRACO-19 (NSC847499), peposertib (NSC802822), ceralasertib (NSC780249), elimusertib (NSC800525), camonsertib (NSC841442), AZD-1390 (NSC803789), olaparib (NSC753686), talazoparib (NSC767125), ART-558 (NSC835418), sotorasib (NSC818433), MRTX-1133 (NSC836407), SN-38 (NSC673596), topotecan (NSC609699), etoposide (NSC141540), doxorubicin (NSC123127), gemcitabine (NSC613327), 5-fluorouracil (NSC19893), paclitaxel (NSC125973), vemurafenib (NSC761431), panobinostat (NSC761190), R-306465 (JNJ-16241199; NSC773264), adavosertib (NSC754352), TP-3654 (NSC805149), carboplatin (NSC241240), KSQ-4279 (NSC840948), and staurosporine (NSC755774) were obtained from the National Cancer Institute (NCI) Developmental Therapeutics Program Chemical Repository (34). The FDA-approved anticancer drug set is available from the NCI Developmental Therapeutics Program. […] The stock solutions were prepared in dimethyl sulfoxide (DMSO, Sigma-Aldrich, St. Louis, MO, cat. D2650) at 800-fold the tested concentration and stored at -70 degrees C prior to their use. All drugs and investigational agents were tested over a range starting from a high concentration at or near the clinical Cmax and decreasing in half-log increments. If the clinical Cmax for an agent had not been determined, the highest concentration tested was 10 microM.
2.3 Cell Culture. All cells were maintained in an incubator at 37 degrees C and 5% CO2 with 95% humidity. The PDC lines were cultured according to standard operating procedures established by the NCI PDMR. All PDCs were thawed and cultured in Matrigel-coated flasks prepared with a working solution of 1X Ham's F-12 nutrient mix, without supplementation (Invitrogen, cat. 11765054), 100 U/mL penicillin-streptomycin (Invitrogen, cat. 15140122), and 2.5% Matrigel (Corning Inc., cat. 354248) for the first three passages. The 857933-349-R-J2-PDC line was cultured in 6C/Colon 1B media, which includes advanced DMEM/F-12 (Thermo Fisher Scientific, cat. 12634028), 10 mM HEPES (Thermo Fisher Scientific, cat. 15630080), 1X GlutaMAX supplement (Thermo Fisher Scientific, cat. 35050061), 0.1 mg/mL primocin (InvivoGen, cat. ant-pm-2), 10% defined fetal bovine serum, heat inactivated (HyClone Laboratories Inc., cat. SH30070.03HI), 50% L-WRN conditioned media (ATCC, cat. CRL-3276), 1.25 mM N-Acetyl-L-cysteine (Sigma-Aldrich, cat. A9165), 10 mM nicotinamide (Sigma-Aldrich, cat. N0636), 1X B-27 supplement (Thermo Fisher Scientific, cat. 17504044), 1X N-2 supplement (Thermo Fisher Scientific, cat. 17502048), 10 microM Y-27632 dihydrochloride (Tocris Bioscience, cat. 1254), and 50 ng/mL human EGF recombinant protein (Thermo Fisher Scientific, cat. PHG0311). The 485176-168-R4-J1-PDC line was cultured in Panc media, which includes all 6C/Colon 1B media components plus 100 ng/mL human FGF-10 (Thermo Fisher Scientific, cat. 100-26), 500 nM SB-431542 (Selleckchem, cat. S1067), and gastrin (Tocris, cat. 3006).
[…]
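Note: spheroids exposed to drugs for 7 days.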
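Throughout, for viability, T/C: 100% = DMSO vehicle control viability.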

Structure (SMILES): COc1ncnc(C2CC2)c1-c1ncc2cnn(Cc3ccc(-c4nc(C(F)(F)F)cn4C(C)C)cc3)c2n1
- viability, T/C (compound 0.0316 µM): 90% and 113% and 103%
- viability, T/C (compound 0.1 µM): 95.5% and 108% and 94%
- viability, T/C (compound 0.316 µM): 90.5% and 94.9% and 102%
- viability, T/C (compound 1 µM): 88.4% and 101% and 105%
- viability, T/C (compound 3.16 µM): 96% and 96.8% and 92.5%
- viability, T/C (compound 10 µM): 76.6% and 96.9% and 106%
- IC50 (curve of compound): > 10 µM

Structure (SMILES): COc1ncnc(C2CC2)c1-c1ncc2cnn(Cc3ccc(-c4nc(C(F)(F)F)cn4C(C)C)cc3)c2n1 + Cc1cnc(CNC(=O)c2c(=O)c3ccc(N4CCCN(C)CC4)nc3n3c2sc2ccccc23)cn1
- IC50 (curve of first compound, second compound 0.0316 µM): > 10 µM
- IC50 (curve of first compound, second compound 0.1 µM): > 10 µM
- IC50 (curve of first compound, second compound 0.316 µM): > 10 µM
- IC50 (curve of first compound, second compound 1 µM): < 0.0316 µM
- IC50 (curve of first compound, second compound 3.16 µM): < 0.0316 µM
- IC50 (curve of first compound, second compound 10 µM): < 0.0316 µM
- viability, T/C (second compound 0.0316 µM, first compound 0.0316 µM): 90%
- viability, T/C (second compound 0.0316 µM, first compound 0.1 µM): 73.9%
- viability, T/C (second compound 0.0316 µM, first compound 0.316 µM): 86.6%
- viability, T/C (second compound 0.0316 µM, first compound 1 µM): 67%
- viability, T/C (second compound 0.0316 µM, first compound 3.16 µM): 79.1%
- viability, T/C (second compound 0.0316 µM, first compound 10 µM): 76.1%
- viability, T/C (second compound 0.1 µM, first compound 0.0316 µM): 67.3%
- viability, T/C (second compound 0.1 µM, first compound 0.1 µM): 55.1%
- viability, T/C (second compound 0.1 µM, first compound 0.316 µM): 62.3%
- viability, T/C (second compound 0.1 µM, first compound 1 µM): 51.5%
- viability, T/C (second compound 0.1 µM, first compound 3.16 µM): 69%
- viability, T/C (second compound 0.1 µM, first compound 10 µM): 62.1%
- viability, T/C (second compound 0.316 µM, first compound 0.0316 µM): 55.5%
- viability, T/C (second compound 0.316 µM, first compound 0.1 µM): 57.2%
- viability, T/C (second compound 0.316 µM, first compound 0.316 µM): 61.6%
- viability, T/C (second compound 0.316 µM, first compound 1 µM): 53.1%
- viability, T/C (second compound 0.316 µM, first compound 3.16 µM): 62.6%
- viability, T/C (second compound 0.316 µM, first compound 10 µM): 48.5%
- viability, T/C (second compound 1 µM, first compound 0.0316 µM): 42.4%
- viability, T/C (second compound 1 µM, first compound 0.1 µM): 39.3%
- viability, T/C (second compound 1 µM, first compound 0.316 µM): 38.2%
- viability, T/C (second compound 1 µM, first compound 1 µM): 36.1%
- viability, T/C (second compound 1 µM, first compound 3.16 µM): 48.1%
- viability, T/C (second compound 1 µM, first compound 10 µM): 33.2%
- viability, T/C (second compound 3.16 µM, first compound 0.0316 µM): 27.5%
- viability, T/C (second compound 3.16 µM, first compound 0.1 µM): 39.1%
- viability, T/C (second compound 3.16 µM, first compound 0.316 µM): 43.6%
- viability, T/C (second compound 3.16 µM, first compound 1 µM): 42.6%
- viability, T/C (second compound 3.16 µM, first compound 3.16 µM): 42.5%
- viability, T/C (second compound 3.16 µM, first compound 10 µM): 37.4%
- viability, T/C (second compound 10 µM, first compound 0.0316 µM): 29.4%
- viability, T/C (second compound 10 µM, first compound 0.1 µM): 41.9%
- viability, T/C (second compound 10 µM, first compound 0.316 µM): 34.3%
- viability, T/C (second compound 10 µM, first compound 1 µM): 32.9%
- viability, T/C (second compound 10 µM, first compound 3.16 µM): 37.3%
- viability, T/C (second compound 10 µM, first compound 10 µM): 32.8%
